In this data set the test system is Rattus norvegicus. Conditions: oral.
The mark [1] stands for this setting: short-term, duration: 28 days, gavage, F, Sprague-Dawley, Clinical Observation: Salivation Soft feces Diarrhea Soiled perigenital fur + Body Weight Changes: decrease, Gain decrease + Urinalysis: pH ….
The mark [2] stands for this setting: short-term, duration: 28 days, gavage, M, Sprague-Dawley, Clinical Observation: Salivation Soft feces Diarrhea Soiled perigenital fur + Body Weight Changes: decrease, Gain decrease + Urinalysis: pH ….
The mark [3] stands for this setting: short-term, duration: 28 days, gavage, M, Sprague-Dawley, Clinical Observation: Locomotor activity decrease, Staining around nose and mouth Salivation + Functional Observational Battery: Motor ….
Setting [4] is: chronic, duration: 92 days, gavage, M/F, Fischer 344, Histopathology: Liver-Proliferation of smooth endoplasmic reticulum, parenchymal cell (Electron-microscopic examination) Liver-Decrease in ….
Where [5] appears, read: short-term, duration: 28 days, gavage, F, Sprague-Dawley, Clinical Observation: Soft stool + Body Weight Changes: decrease, Gain decrease + Urinalysis: Protein increasep H decrease + Blood Chemistry….
The mark [6] stands for this setting: short-term, duration: 28 days, gavage, M, Sprague-Dawley, Clinical Observation: Soft stool + Body Weight Changes: decrease, Gain decrease + Urinalysis: Protein increasep H decrease + Blood Chemistry….

The results in this text go back to EPA's ToxValDB 9.5.

Take `Cc1ccc(C)c(OCCCC(C)(C)C(=O)O)c1` [Gemfibrozil]: the NOAEL – broadly, the highest tested level that showed no adverse finding – was 30 mg/kg-day (chronic, duration: 91 days, diet, F, CD, Body Weight Changes: Body weight gain decrease + Hematology: RBC decrease, HCT decrease, HGB decrease, Plt increase, RET increase + Blood …) and less than 30 mg/kg-day (chronic, duration: 91 days, diet, M, CD, Body Weight Changes: Body weight gain decrease + Hematology: RBC decrease, HCT decrease, HGB decrease, Plt increase, RET increase + Blood …).
For `[In]` [Indium], the NOEL (short-term, duration: 28 days, gavage, Crj:CD) was found to be 1000 mg/kg-day.
On to `CC(C)c1cccc2ccccc12` [Isopropylnaphthalene], for which, under setting [1], the LOEL was 250 mg/kg-day and the NOEL came to 50 mg/kg-day. Besides, under setting [2], the LOEL was 250 mg/kg-day and the NOEL was determined as 50 mg/kg-day.
Consider `OC[C@@H](O)[C@@H](O[C@@H]1O[C@H](CO)[C@H](O)[C@H](O)[C@H]1O)[C@H](O)[C@@H](O)CO` [Lactitol], for which, for the setting “subchronic, gavage, M/F, SLC:SD, Clinical Observation: Loose stool, Diarrhea Soiled fur, Salivation Abdominal distention + Body Weight Changes: decrease + Food Consumption: …”, the NOEL was less than 625 mg/kg-day.
Regarding `C=CC(C)(O)CCC=C(C)C` (stereo unspecified) [Linalool], under “short-term, duration: 28 days, gavage, M/F, CD/BR, Deaths + Blood Chemistry: TP increase, Alb increase, Ca increase, Glu decrease + Absolute Organ Weight: Liver increase, Kidney increase + …”, the NOAEL is 160 mg/kg-day.
For the compound `O=C/C=C/[O-].[Na+]` [Malonaldehyde, sodium salt], the NOEL (subchronic, duration: 13 weeks, gavage, M/F, Fischer 344, Deaths + Clinical Observation: Rough hair coats Red exudate around the eyes Impairment of hindleg motor ability + Body Weight Changes: …) came to 30 mg/kg-day.
As to `COC(=O)CCS` [Methyl 3-mercaptopropionate], the NOAEL (subchronic, gavage, M, Wistar, Clinical Observation: Pushed their heads through the bedding + Relative Organ Weight: Liver increase + Histopathology: Stomach: Hyperplasia…) was 100 mg/kg-day.
As for `COC(N)=O` [Methyl carbamate], the NOEL (subchronic, duration: 13 weeks, gavage, M/F, Fischer 344, Deaths + Body Weight Changes: decrease + Absolute Organ Weight: Liver decrease + Relative Organ Weight: Liver decrease + Histopathology: …) amounted to 50 mg/kg-day.
For the compound `C[C@](N)(Cc1ccc(O)c(O)c1)C(=O)O.C[C@](N)(Cc1ccc(O)c(O)c1)C(=O)O.O.O.O` [Methyldopa sesquihydrate], the NOEL (subchronic, duration: 13 weeks, diet, M/F, Fischer 344, Deaths + Body Weight Changes: decrease + Food Consumption: decrease + Absolute Organ Weight: Liver decrease + Relative Organ Weight: Liver …) is less than 298 mg/kg-day.
Where the note is “subchronic, gavage, M, Sprague-Dawley, Histopathology: Lungs/ bronchus a"Vacuolation, bronchial epithelium Epididymis- Decrease, sperm”, `CN(C)CCCCCCN(C)C` [N,N,N',N'-Tetramethyl-1,6-hexanediamine] gave an NOEL of 10 mg/kg-day.
As to `C=CC(=O)N(C)C` [N,N-Dimethylacrylamide], the NOEL (short-term, duration: 28 days, gavage, M/F, Sprague-Dawley, Functional Observational Battery: Urination increase, Rearing decrease, Unkempt fur Motor activity decrease + Body Weight Changes: decrease…) is 20 mg/kg-day.
As to `O=NN1CN2CN(C1)CN(N=O)C2` [N,N-Dinitrosopentamethylenetetramine], under setting [3], the NOAEL is less than 40 mg/kg-day and the NOEL is less than 40 mg/kg-day.
Regarding `CC(=O)Nc1ccccc1` [N-Acetylaminobenzene], the NOAEL (subchronic, duration: 30 days, gavage, M, Sprague-Dawley, Clinical Observation: Decreased locomotor activity Reddish Tear SalivationCyanosis + Hematology: HGB decrease, HCT decrease, MCHC decrease…) was less than 22 mg/kg-day.
`CC1OC(C)OC(C)O1` (stereo unspecified) [Paraldehyde]: the NOEL (short-term, duration: 28 days, gavage, M/F, Sprague-Dawley, Clinical Observation: Locomotor activity decrease + Functional Observational Battery: Width of straddle increase + Relative Organ Weight: …) was 100 mg/kg-day.
As for `CC1(C)S[C@@H]2[C@H](NC(=O)COc3ccccc3)C(=O)N2[C@H]1C(=O)[O-].[K+]` [Penicillin VK], where the note is “subchronic, duration: 13 weeks, gavage, M/F, Fischer 344, Clinical Observation: Diarrhea + Body Weight Changes: decrease + Histopathology: Stomach/glandular-Mucous cell metaplasia”, the NOEL is 370 mg/kg-day.
Take `Oc1cccc(Br)c1` [Phenol, 3-bromo-]: the NOEL (short-term, duration: 28 days, gavage, M/F, Sprague-Dawley, Clinical Observation: Salivation + Body Weight Changes: Weight gain decrease + Water Consumption: increase + Urinalysis: Volume increase + …) was 300 mg/kg-day.
Regarding `CCC1(c2ccccc2)C(=O)NCNC1=O` [Primidone], the NOEL (chronic, duration: 14 weeks, diet, M/F, Fischer 344, Body Weight Changes: decrease + Hematology: Plt increase, Hgb decrease, WBC increase, Lympho increase + Blood Chemistry: Blood cemistry', '…) was less than 23.4 mg/kg-day.
Take `Oc1cccc(O)c1` [Resorcinol]: the NOEL (subchronic, duration: 13 weeks, gavage, M/F, Fischer 344, Deaths + Clinical Observation: Tremor + Blood Chemistry: Ch E decrease + Absolute Organ Weight: Adrenal increase + Relative Organ Weight: …) is less than 32 mg/kg-day.
On to `C=C1C/C(=C/C)C(=O)O[C@@H]2CCN3CC=C(COC(=O)[C@@]1(O)CO)[C@H]23` [Riddelliine], for which the NOEL (subchronic, gavage, M/F, Fischer 344, Deaths + Body Weight Changes: decrease + Hematology: Ret increase Hct increase Hgb increase RBC increase Plt decrease, WBC increase Lymph …) is less than 0.1 mg/kg-day.
Under setting [4], `CN(C)C(=O)c1nc(CNC(=O)CN)n(-c2ccc(Cl)cc2C(=O)c2ccccc2Cl)n1.Cl` [Rilmazafone hydrochloride] gave an NOAEL of 25 mg/kg-day and an NOEL of 1 mg/kg-day.
Turning to `C=Cc1ccc(S(=O)(=O)[O-])cc1.[Na+]` [Sodium 4-vinylbenzenesulfonate], the LOEL is 1000 mg/kg-day under setting [5] and 300 mg/kg-day under setting [6]. Also, the NOEL runs as follows: under setting [5], 300 mg/kg-day; under setting [6], 100 mg/kg-day.
Turning to `O=C([O-])[C@H](O)[C@@H](O)[C@H](O)[C@H](O)CO.[Na+]` [Sodium D-gluconate], the NOAEL was 4100 mg/kg-day (short-term, duration: 28 days, diet, CD(SD)); 5% (short-term, duration: 28 days, diet, Sprague-Dawley); 1000 mg/kg-day (short-term, duration: 28 days, gavage, M, CD(SD), Histopathology: Stomach: Thickening of the limiting ridge); 1000 mg/kg-day (short-term, duration: 28 days, gavage, M, CD(SD), Histopathology: Stomach: Thickening, limiting ridge).
Take `CC(C)(C)C(O)(CCc1ccc(Cl)cc1)Cn1cncn1` (stereo unspecified) [Tebuconazole]: under “short-term, duration: 28 days, gavage, M/F, Clinical Observation: Coma Polyuria + Body Weight Changes: Body weight gain decrease + Hematology: WBC increase, Seg% increase + Blood …”, the NOEL amounted to 30 mg/kg-day.
In the case of `CC(=O)CC/C=C(\C)CC/C=C(\C)CC/C=C(\C)CCC=C(C)C` [Teprenone], under “subchronic, gavage, M/F, Sprague-Dawley, Clinical Observation: Oily fur Unkempt fur Loss of fur Diarrhea + Body Weight Changes: decrease + Urinalysis: Cl increase, Ketone + …”, the NOEL was 62.5 mg/kg-day.
Under “subchronic, gavage, Sprague-Dawley”, `CC(C)(c1cc(Br)c(OCC(Br)CBr)c(Br)c1)c1cc(Br)c(OCC(Br)CBr)c(Br)c1` (stereo unspecified) [Tetrabromobisphenol A-bis(2,3-dibromopropyl ether)] registered an NOEL of 1000 mg/kg-day.
In the case of `OCC1CCCO1` (stereo unspecified) [Tetrahydrofurfuryl alcohol], the NOEL (short-term, duration: 28 days, gavage, M/F, Sprague-Dawley, Clinical Observation: Locomotor activity increase, Locomotor activity decrease, Prone position + Functional Observational Battery: Grip …) is 40 mg/kg-day.
With `Nc1nn[nH]n1` [Tetrazol-5-ylamine], the NOEL (subchronic, gavage, M, Sprague-Dawley, Blood Chemistry: BUN increase) amounted to 200 mg/kg-day.
For `[Cl-].[Cl-].[Ti+4].c1cc[cH-]c1.c1cc[cH-]c1` [Titanocene dichloride], the NOEL (subchronic, duration: 13 weeks, gavage, M/F, Fischer 344, Deaths + Body Weight Changes: decrease + Absolute Organ Weight: Liver increase, Thymus decrease + Relative Organ Weight: kidney increase, …) was less than 8 mg/kg-day.
`[CH3][Sn]([Cl])([Cl])[Cl]` [Trichloromethylstannane]: the NOAEL (subchronic, duration: 90 days, diet, M/F, Wistar, Food Consumption: increase + Urinalysis: Volume increase, Specific gravity decrease, pH increase, Crystals increase + Hematology: RBC …) came out at 14.4 mg/kg-day.
